System: epilepsy patients
Assay: treatment stability of AED monotherapy in the one year evaluation period (medical claims data)
Format: in vivo
Details: percentage of patients for which the treatment worked based on the clinician's recommendation; stable = monotherapy for at least 80% of the one year evaluation period without switching; adult epilepsy patients
Description: Step 18 may also include a substep 18e of filtering patients according to a defined target variable indicating AED treatment regime efficacy. In some preferred embodiments, the target variable is treatment stability. An aim of the present disclosure is to measure the efficacy of treatment regimens consisting of one or more AEDs. One way of measuring the efficacy of treatment would be to monitor the patient's progress with respect to seizure frequency before and after treatment. A reduction in the number of seizures would imply that the regimen is effective. […] Accordingly, method 10 defines a proxy for treatment effectiveness. Based on input from domain experts and clinicians, method 10 uses treatment stability as an indicator of the effectiveness of a particular treatment. In some preferred embodiments, a treatment regimen is considered stable for a patient if the patient satisfies a treatment change criteria and a minimum coverage criteria. […] The minimum coverage criteria is satisfied if the patient complies with the treatment regimen which has been prescribed for at least a predetermined percentage of the evaluation period. In one preferred embodiment, the minimum coverage criteria is satisfied if the patient complies with the treatment regimen which has been prescribed for at least 80% evaluation period.
If the MPR is greater than 80%, the patient can be determined to be stable for that drug.
For the unstable outcome, a treatment change occurs during the evaluation period—i.e., within […] the index date at which a first treatment regimen R1 is prescribed—in the form of a second treatment regimen R2. For the stable outcome, a treatment change—i.e., the second regimen R2—occurs after the evaluation period.
In this embodiment, for simplicity, the three aforementioned treatment categories—i.e., ADD, SWITCH and NEW—are not differentiated between when defining the index date and, in contrast to the technique in Devinsky et al., all medication claims for a patient in the baseline period before the AED-specific index date are used to train the AED-specific predictive model for the patient. In other embodiments, the treatment categories can be analyzed separately to assess the efficacy of a treatment regimen in different scenarios. In this embodiment, predictive models are built only for monotherapies, instead of for both monotherapies and combination therapies. For a particular AED, all the adult patients who have been prescribed the AED, have at least 1 year of medical history before the prescription and have at least one year of evaluation period after prescription are analyzed. As mentioned above, this subset of patients constitutes the cohort for the predictive model for the AED being analyzed and the target variable is treatment stability.
The control patients refer to the number of patients which switched to treatments other than the one being analyzed in the evaluation window and were considered unstable on that treatment regimen. The percentage baseline success rate refers to the percentage of patients for which the treatment worked based on the clinician's recommendation. The AUC refers to the area under the ROC curve or the C-statistic which is the ratio of the true positive rate (TPR) and the false positive rate (FPR) for different values of the threshold. This ratio reflects the performance of the model since a higher AUC would imply that higher TPR was achieved and more true positives were obtained than false positives.

SMILES | Percentage Baseline Success Rate
CCC1(c2ccccc2)C(=O)NC(=O)NC1=O [PHENOBARBITAL, Phenobarbital] | 55.76
O=C1Nc2ccc(Cl)cc2C(c2ccccc2Cl)=NC1O (stereo not drawn) [LORAZEPAM, Lorazepam] | 25.28
NC(=O)N1c2ccccc2CC(=O)c2ccccc21 [OXCARBAZEPINE, Oxcarbazepine] | 52.83
Nc1nnc(-c2cccc(Cl)c2Cl)c(N)n1 [LAMOTRIGINE, Lamotrigine] | 53.32
CN1C(=O)CN=C(c2ccccc2)c2cc(Cl)ccc21 [DIAZEPAM, Diazepam] | 25.22
O=C1CN=C(c2ccccc2Cl)c2cc([N+](=O)[O-])ccc2N1 [CLONAZEPAM, Clonazepam] | 30.98
NC(=O)N1c2ccccc2C=Cc2ccccc21 [CARBAMAZEPINE] | 54.76
NCC1(CC(=O)O)CCCCC1 [GABAPENTIN, Gabapentin] | 35.69
CCC1(c2ccccc2)C(=O)NCNC1=O [PRIMIDONE, Primidone] | 48.94
COC[C@@H](NC(C)=O)C(=O)NCc1ccccc1 [LACOSAMIDE, Lacosamide] | 37.73
NS(=O)(=O)Cc1noc2ccccc12 [ZONISAMIDE, Zonisamide] | 42.95
O=C1NC(=O)C(c2ccccc2)(c2ccccc2)N1 [PHENYTOIN, Phenytoin] | 45.01
CC1(C)O[C@@H]2[C@@H](CO[C@@]3(COS(N)(=O)=O)OC(C)(C)O[C@@H]23)O1 [TOPIRAMATE, Topiramate] | 38.97
CC(C)C[C@H](CN)CC(=O)O [PREGABALIN, Pregabalin] | 28.60
CC[C@@H](C(N)=O)N1CCCC1=O [LEVETIRACETAM, Levetiracetam] | 54.99

— patent US11315685B2, “Method and system for predicting optimal epilepsy treatment regimes” (UCB BIOPHARMA SPRL, priority 2017, dated 2022)
